Test results published in patent US20220112479A1, “COMPOUNDS STABILIZING AMYLASES IN LIQUIDS” (BASF SE, priority 2018, published 2022).

Columns and labels:
Format in all cases: biochemical
[1] = biological target: T1, Savinase Ultra 16.0L (Lederbergia lenta, UniProt P29600); test: protease storage stability in liquid formulation (Suc-AAPF-pNA substrate); details: storage at 37° C.
T1 construct: purchased Sigma-Aldrich
T1 sequence (P29600 1-269): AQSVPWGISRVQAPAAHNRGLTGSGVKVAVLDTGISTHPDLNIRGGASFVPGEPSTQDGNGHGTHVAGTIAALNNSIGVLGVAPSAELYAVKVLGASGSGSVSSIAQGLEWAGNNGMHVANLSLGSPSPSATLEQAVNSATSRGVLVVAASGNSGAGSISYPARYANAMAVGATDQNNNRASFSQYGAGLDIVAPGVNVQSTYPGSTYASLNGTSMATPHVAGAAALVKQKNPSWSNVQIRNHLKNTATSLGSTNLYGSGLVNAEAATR
Procedure, shortened: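 Savinase in liquid base formulations containing test salt, comparative compound or diethylene glycol; amounts given as active protein. Residual activity at set storage times measured with Suc-AAPF-pNA via pNA release at OD405, 20 °C. Activity expressed relative to reference formulation at time 0.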

[2] = test system: Amylase; test: amylase storage stability in liquid laundry formulation (pNP release from Ethyliden-blocked-pNPG7); design: key: % of activity in reference formulation at time 0; details: laundry base formulation VII. (2.0 EDTA), 2.5 wt % component (a), storage at 37° C.
Procedure, shortened: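 Amylase stored in liquid laundry base formulations at 37° C, activity sampled over time. Activity measured as pNP release (A405) from ethylidene-blocked pNPG7 with excess α-glucosidase; values expressed relative to the reference formulation at time 0.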

[3] = test system: Amy3=Stainzyme Plus L (12L); test: amylase storage stability in liquid formulation (pNP release from Ethyliden-blocked-pNPG7); details: base formulation II., 1.5 wt % component (a), storage at 37° C.
Procedure, shortened: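 Liquid formulations with amylase (as active protein) stored at 37 °C and sampled at intervals. Activity measured as pNP release (405 nm) from ethylidene-blocked pNPG7 with excess α-glucosidase, Termamyl standard; expressed relative to reference formulation at time 0.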

Diethylcitrate [A.7]
protease activity, referring to reference formulation at time 0 ([1]; base formulation I., 1.5 wt % component (a), 3 d): 94 | protease activity, referring to reference formulation at time 0 ([1]; base formulation I., 1.5 wt % component (a), 7 d): 91 | protease activity, referring to reference formulation at time 0 ([1]; base formulation I., 1.5 wt % component (a), 14 d): 85 | protease activity, referring to reference formulation at time 0 ([1]; base formulation I., 1.5 wt % component (a), 21 d): 81 | protease activity, referring to reference formulation at time 0 ([1]; base formulation I., 1.5 wt % component (a), 28 d): 76 | protease activity, referring to reference formulation at time 0 ([1]; base formulation I., 1.5 wt % component (a), 42 d): 63 | protease activity, referring to reference formulation at time 0 ([1]; base formulation I., 1.5 wt % component (a), T0): 100 | protease activity, referring to reference formulation at time 0 ([1]; base formulation II., 1.5 wt % component (a), 3 d): 98 | protease activity, referring to reference formulation at time 0 ([1]; base formulation II., 1.5 wt % component (a), 7 d): 93 | protease activity, referring to reference formulation at time 0 ([1]; base formulation II., 1.5 wt % component (a), 14 d): 88 | protease activity, referring to reference formulation at time 0 ([1]; base formulation II., 1.5 wt % component (a), 21 d): 85 | protease activity, referring to reference formulation at time 0 ([1]; base formulation II., 1.5 wt % component (a), 28 d): 80 | protease activity, referring to reference formulation at time 0 ([1]; base formulation II., 1.5 wt % component (a), 42 d): 71 | protease activity, referring to reference formulation at time 0 ([1]; base formulation II., 1.5 wt % component (a), T0): 100 | protease activity, referring to reference formulation at time 0 ([1]; base formulation III., 1.5 wt % component (a), 3 d): 97 | protease activity, referring to reference formulation at time 0 ([1]; base formulation III., 1.5 wt % component (a), 7 d): 95 | protease activity, referring to reference formulation at time 0 ([1]; base formulation III., 1.5 wt % component (a), 14 d): 92 | protease activity, referring to reference formulation at time 0 ([1]; base formulation III., 1.5 wt % component (a), 21 d): 87 | protease activity, referring to reference formulation at time 0 ([1]; base formulation III., 1.5 wt % component (a), 28 d): 74 | protease activity, referring to reference formulation at time 0 ([1]; base formulation III., 1.5 wt % component (a), 42 d): 64 | protease activity, referring to reference formulation at time 0 ([1]; base formulation III., 1.5 wt % component (a), T0): 100 | protease activity, referring to reference formulation at time 0 ([1]; base formulation IV., 2.0 wt % component (a), 3 d): 96 | protease activity, referring to reference formulation at time 0 ([1]; base formulation IV., 2.0 wt % component (a), 7 d): 88 | protease activity, referring to reference formulation at time 0 ([1]; base formulation IV., 2.0 wt % component (a), 14 d): 79 | protease activity, referring to reference formulation at time 0 ([1]; base formulation IV., 2.0 wt % component (a), 21 d): 74 | protease activity, referring to reference formulation at time 0 ([1]; base formulation IV., 2.0 wt % component (a), 28 d): 68 | protease activity, referring to reference formulation at time 0 ([1]; base formulation IV., 2.0 wt % component (a), 42 d): 62 | protease activity, referring to reference formulation at time 0 ([1]; base formulation IV., 2.0 wt % component (a), T0): 98 | protease activity, referring to reference formulation at time 0 ([1]; base formulation V., 2.0 wt % component (a), 3 d): 93 | protease activity, referring to reference formulation at time 0 ([1]; base formulation V., 2.0 wt % component (a), 7 d): 88 | protease activity, referring to reference formulation at time 0 ([1]; base formulation V., 2.0 wt % component (a), 14 d): 79 | protease activity, referring to reference formulation at time 0 ([1]; base formulation V., 2.0 wt % component (a), 21 d): 72 | protease activity, referring to reference formulation at time 0 ([1]; base formulation V., 2.0 wt % component (a), 28 d): 66 | protease activity, referring to reference formulation at time 0 ([1]; base formulation V., 2.0 wt % component (a), 42 d): 54 | protease activity, referring to reference formulation at time 0 ([1]; base formulation V., 2.0 wt % component (a), T0): 97 | amylase activity, referring to reference formulation at time 0 ([2]; 3 d): 90 | amylase activity, referring to reference formulation at time 0 ([2]; 7 d): 82 | amylase activity, referring to reference formulation at time 0 ([2]; 14 d): 69 | amylase activity, referring to reference formulation at time 0 ([2]; 21 d): 62 | amylase activity, referring to reference formulation at time 0 ([2]; 28 d): 56 | amylase activity, referring to reference formulation at time 0 ([2]; T0): 99 | amylase activity, referring to reference formulation at time 0 ([3]; 3 d): 94 | amylase activity, referring to reference formulation at time 0 ([3]; 7 d): 86 | amylase activity, referring to reference formulation at time 0 ([3]; 14 d): 82 | amylase activity, referring to reference formulation at time 0 ([3]; 21 d): 72 | amylase activity, referring to reference formulation at time 0 ([3]; 28 d): 64 | amylase activity, referring to reference formulation at time 0 ([3]; 42 d): 53 | amylase activity, referring to reference formulation at time 0 ([3]; T0): 99
